Read-outs that look alike come from different tables or passages of the source. Values belong to the molecule of their own block, whether it stands above or below them.
Key:
D3R [1] = target: T1, D3R (Rattus norvegicus, UniProt P19020); assay: Competition binding study of [125I]HY-3-24 in rat ventral striatal membranes; conditions: for fold lower affinity/potency for displacing [125I]HY-3-24 relative to eticlopride: rat ventral striatum
T1 construct: The ventral striatum was isolated by dissection on ice; tissue Innovative research, Inc; host or cells: Sprague–Dawley rat brain: ventral striatal homogenates; frozen brain sections
Method: (§1) Frozen rat brains (Sprague–Dawley rat, Male, 6–8 weeks old) were obtained from Innovative research, Inc. (Novi, Michigan, United States). The ventral striatum was isolated by dissection on ice. Cold homogenization buffer (HB, 20 mM Tris–HCl, 5 mM MgCl2, 1 mM EDTA, pH7.5) was added and the tissue homogenized by mortar and pestle on ice. Homogenized tissue was centrifuged at 10,000 × g, 4°C for 30 min. Supernatant was removed and pellet was mixed with cold HB buffer by vortex. This process was repeated two times to get rat ventral striatal homogenates; and protein amount was determined using a BCA protein assay kit. Homogenized tissue homogenates were stored at −80°C until use.
10 μM of (+)-butaclamol was used for determination of non-specific binding. The final reaction volume was 200 μL and the assay mixture was incubated at RT for 60 min. […] The filter was washed with cold buffer (3 times) and counted by gamma counter. The value of Ki was calculated using nonlinear regression analysis by PRISM 9 and the results was presented mean ± SD by three individual experiments.

D3R [2] = target: T1, D3R; assay: D3R and D2R blocking studies of [125I]HY-3-24 in rat striatal homogenates; type: binding; conditions: blocker at 2.4 nM, rat striatal membranes, RT 2 h
Method: For the D3R and D2R blocking studies, [^125I]HY-3-24 (0.3 nM) was mixed with 100 μg of protein and incubated at RT for 2 h in the presence or absence of 30 nM cold HY-3-24, 100 nM SB-277-011A, 10 nM SB-277-011A, or 2.4 nM L-741,626. [^125I]HY-3-24 bound protein was collected by fast filtration methods (GF/C filter soaked in 1% PEI, Brandel Inc., Maryland, United States) and counted using gamma counter (PerkinElmer, Massachusetts, United States).

D2 receptors = target: D2 receptors; parameters: method as in Kulagowski et al., 1996; conditions: ref Kulagowski et al., 1996; read-out: Ki for displacing [3H]spiperone to D2 receptors; cited from earlier work
hD2R [3] = target: hD2R; parameters: method as in Yang et al., 2000; conditions: ref Yang et al., 2000; cited from earlier work
hD3R [4] = target: hD3R; parameters: method as in Yang et al., 2000; conditions: ref Yang et al., 2000; cited from earlier work
[5] = Distribution coefficient (LogD7.4), shake-flask; type: physicochemical; conditions: n-octanol / 0.01 M phosphate buffer pH 7.4, shake-flask, quintuplicate
Method: In a separatory funnel, 10 mL of n-octanol and 20 mL of 0.01 M phosphate buffer (pH 7.4) solution were placed and 5 μL of [^125I]HY-3-24 (700 kBq) was added. The mixture was vigorously shaken for 1 min followed by standing for 20 min to completely separate the layers. Five 1 mL of aliquots were taken from each phase and the radioactivity of each fraction was measured by a Wizard2 Automatic Gamma Counter. LogD7.4 was measured in quintuplicate and calculated as the logarithm of the ratio of radioactivity in organic phase to that in water phase.

D3R [6] = target: T1, D3R; assay: In vitro autoradiography, rat brain sections; type: binding
Method: (§2) Regional brain distribution of [^125I]HY-3-24 binding was determined by in vitro autoradiography using Sprague–Dawley rat and non-human primate brains. A Cryotome (Leica Biosystems, Germany) was used for sectioning frozen brains by coronal and/or sagittal direction, and the thickness of tissue was 10–20 μm. Sectioned slides were stored at −80°C until use. The adjacent brain slides were warmed to RT for 20 min, the slides were incubated with cold reaction buffer (50 mM Tris–HCl, 150 mM NaCl, 1 mM EDTA, pH 7.5) at RT for 10 min, and the buffer was discarded. The slides were then incubated with […] of [^125I]HY-3-24 at RT for 1 h. For non-specific binding, 2 μM of (+)-butaclamol was used. After incubation, the slides were washed with cold buffer (three times) for 2 min, then air dried at RT for 10 min. Radiolabeled brain tissues were exposed to BAS imaging plate (Fujifilm, Tokyo, Japan) for 3 days, and the result was digitized by Typhoon FLA 7000 (GE Healthcare, Illinois, United States) and analyzed by Multi Gauge V3.0. For blocking studies comparing (+)-butaclamol and raclopride, brain slides were initially pretreated with blocking agent (50 nM) for 1 h. prior to the addition of the radioligand (0.3 nM).

D3R [7] = target: T1, D3R; assay: Saturation/equilibrium binding of [125I]HY-3-24 on rat ventral striatum
Method: as §1
To confirm saturation time of [^125I]HY-3-24 with prepared membrane, [^125I]HY-3-24 (~0.3 nM) was mixed with 100 μg of membrane and incubated at RT up to 2 h. [^125I]HY-3-24 bound protein was collected by fast filtration methods (CF/C filter, Brandel Inc., Maryland, United States) and counted using gamma counter (PerkinElmer, Massachusetts, United States).
For saturation binding study, [^125I]HY-3-24 (0.001–1.6 nM concentration range) was incubated with 100 μg/100 μL of homogenized protein at RT for 60 min. Non-specific binding was defined the presence of 10 μM (+)-butaclamol, and total reaction volume was 200 μL. The reaction was finished by adding cold buffer (10 mM Tris–HCl, 150 mM NaCl, pH 7.5), and [^125I]HY-3-24 bound protein was filtered by 24-well harvester (Brandel Inc., Maryland, United States) through CF/C filter soaked with 1% PEI, and washed three times with 4 mL cold buffer. The collected filter was counted by gamma counter and data were analyzed by PRISM 9. The values of Bmax and Kd were obtained by three individual experiments.

D3R [8] = target: T2, D3R (Macaca mulatta, UniProt F6U709); assay: In vitro autoradiography, non-human primate brain sections; type: binding; conditions: rhesus monkey brain sections
T2 construct: in vitro autoradiography using Sprague–Dawley rat and non-human primate brains; from tissue; host or cells: non-human primate brain sections
Method: as §2

hD3R [9] = target: hD3R; parameters: method as in Kim et al., 2023; conditions: ref Kim et al., 2023; cited from earlier work
hD2R [10] = target: hD2R; parameters: method as in Kim et al., 2023; conditions: ref Kim et al., 2023; cited from earlier work
[11] = rat ventral striatal homogenates, 0.2–0.3 nM [125I]HY-3-24, RT 60 min, mean ± SD of three experiments, read-out: Ki for inhibiting [125I]HY-3-24 binding
[12] = rat brain coronal sections, ~0.3 nM radioligand

T1 sequence (P19020 whole entry): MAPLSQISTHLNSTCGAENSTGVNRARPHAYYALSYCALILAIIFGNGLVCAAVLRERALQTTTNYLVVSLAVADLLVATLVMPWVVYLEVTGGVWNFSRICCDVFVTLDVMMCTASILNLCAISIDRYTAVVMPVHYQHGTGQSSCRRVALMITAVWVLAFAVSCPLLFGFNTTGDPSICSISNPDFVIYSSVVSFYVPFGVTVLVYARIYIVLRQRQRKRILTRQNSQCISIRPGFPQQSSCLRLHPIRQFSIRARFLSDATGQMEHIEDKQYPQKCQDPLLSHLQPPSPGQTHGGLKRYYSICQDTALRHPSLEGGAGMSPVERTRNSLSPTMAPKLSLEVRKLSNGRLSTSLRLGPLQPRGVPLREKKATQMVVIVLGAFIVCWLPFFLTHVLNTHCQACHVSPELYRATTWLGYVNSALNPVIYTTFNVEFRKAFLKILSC
T2 sequence (F6U709 1-400): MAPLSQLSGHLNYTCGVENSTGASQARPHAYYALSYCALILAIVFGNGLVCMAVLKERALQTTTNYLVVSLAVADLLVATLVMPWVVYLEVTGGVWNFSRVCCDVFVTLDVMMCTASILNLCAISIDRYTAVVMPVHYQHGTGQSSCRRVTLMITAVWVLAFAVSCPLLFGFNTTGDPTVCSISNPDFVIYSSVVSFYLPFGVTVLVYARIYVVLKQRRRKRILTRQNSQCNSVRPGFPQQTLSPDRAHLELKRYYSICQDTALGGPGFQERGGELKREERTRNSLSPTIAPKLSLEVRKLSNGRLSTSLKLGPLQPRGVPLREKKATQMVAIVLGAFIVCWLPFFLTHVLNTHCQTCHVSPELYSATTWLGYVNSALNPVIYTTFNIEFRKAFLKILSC

Compound: CCCN1CCO[C@@H]2c3cc(O)ccc3CC[C@H]21 [(+)-PHNO]
- Ki (D3R [1]; [11]): 1.72 ± 0.46 nM

- Ki (D3R [1]): 0.25 ± 0.02 nM
Compound: CCc1cc(Cl)c(OC)c(C(=O)NC[C@@H]2CCCN2CC)c1O [Eticlopride]

- displacement of [125I]HY-3-24 binding (D3R [2]): no displacement
Compound: OC1(c2ccc(Cl)cc2)CCN(Cc2c[nH]c3ccccc23)CC1 [L-741,626]
- Ki (D2 receptors): 2.4 nM

Compound: CCN(CC)CCNC(=O)c1cc(Cl)c(N)cc1OC [Metoclopramide]
- Ki (hD2R [3]): 21 ± 1 nM
- Ki (hD3R [4]): 27 ± 3 nM

Compound: CCCN1CCO[C@@H]2c3cc(O)ccc3OC[C@H]21 [PD128907]
- Ki (D3R [1]; [11]): 7.65 ± 1.15 nM

- Ki (D3R [1]; [11]): 2.51 ± 0.9 nM
- fold lower affinity/potency for displacing [125I]HY-3-24 relative to eticlopride (D3R [1]): 10 fold
Compound: CCN1CCC[C@H]1CNC(=O)c1c(O)c(Cl)cc(Cl)c1OC [Raclopride]

- Ki (D3R [1]; [11]): 215 ± 61.7 nM
- fold lower affinity/potency for displacing [125I]HY-3-24 relative to eticlopride (D3R [1]): 1,000 fold
Compound: CN1CCc2cc(Cl)c(O)cc2[C@@H](c2ccccc2)C1 [SCH23390]

Compound: CCN(CCCNC(=O)c1ccc(-c2ccncc2)cc1)CCNC(=O)c1cc([125I])cc(OC)c1OC [[^125I]HY-3-24]
- logD at 1 min [5]: 2.41 ± 0.01
- binding in NAc including ICjM, and ICj (D3R [6]; [12]): High binding
- binding in striatum (D3R [6]; [12]): lower amount of binding
- displaceability by (+)-butaclamol and raclopride (D3R [6]; rat brain slices, blocking agents 50 nM, radioligand ~0.3 nM): fully displaceable
- percentage of specific binding (D3R [7]; rat ventral striatal membranes): over 70%
- non-specific binding, of total binding (D3R [7]; rat ventral striatal membranes, 10 μM (+)-butaclamol): less than 10%
- Kd (D3R [7]; rat ventral striatal membranes, RT 60 min, three experiments): 0.34 ± 0.22 nM
- Bmax (D3R [7]; rat ventral striatal membranes, fmol/mg of protein, three experiments): 38.91 ± 2.39 fmol/mg
- time to binding equilibrium (D3R [7]; ~0.3 nM radioligand, 100 μg protein, RT, persisted until 2 h): about 30 min
- non-specific binding (D3R [8]; blocking with 2 μM (+)-butaclamol): low level of non-specific binding
- binding in caudate nucleus (Cd), putamen (Pu), NAc, and ICj (D3R [8]; ~0.1 nM radioligand): high density

Compound: CCN(CCCNC(=O)c1ccc(-c2ccncc2)cc1)CCNC(=O)c1cc(Br)cc(OC)c1OC [compound 6]
- Ki (hD3R [9]): 1.1 ± 0.1 nM
- Ki (hD2R [10]): 107 ± 5 nM
